{"source": "ChEMBL document CHEMBL5465560", "about": "“Selectivity Literature for EUbOPEN Chemogenomic Library” (2024)", "key": {"[1]": {"molecular_target": "Serine/threonine-protein kinase WNK2 (Homo sapiens) (UniProt Q9Y3S1)", "assay": "Selectivity interaction (KinomeScan (DiscoverX)) EUB0001079a WNK2", "conditions": "at 1 µM"}, "[2]": {"molecular_target": "Mitogen-activated protein kinase 1 (Homo sapiens, UniProt P28482)", "sequence (P28482 whole entry)": "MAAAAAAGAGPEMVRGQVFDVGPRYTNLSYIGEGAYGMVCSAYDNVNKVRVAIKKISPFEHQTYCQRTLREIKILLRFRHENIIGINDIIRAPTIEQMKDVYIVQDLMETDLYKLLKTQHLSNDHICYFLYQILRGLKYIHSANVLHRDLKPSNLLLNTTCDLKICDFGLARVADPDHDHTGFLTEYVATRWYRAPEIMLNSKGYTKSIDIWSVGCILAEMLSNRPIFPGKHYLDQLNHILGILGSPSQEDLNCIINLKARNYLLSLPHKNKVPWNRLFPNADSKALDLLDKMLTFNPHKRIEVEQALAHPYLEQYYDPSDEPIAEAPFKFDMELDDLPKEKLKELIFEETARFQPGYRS", "assay": "Selectivity interaction (Kinase panel (Z-LYTE Assay)) EUB0001632a MAPK1", "conditions": "at 10 µM"}, "[3]": {"molecular_target": "T1, Ephrin type-B receptor 4 (Homo sapiens) (UniProt P54760)", "T1 sequence (whole entry)": "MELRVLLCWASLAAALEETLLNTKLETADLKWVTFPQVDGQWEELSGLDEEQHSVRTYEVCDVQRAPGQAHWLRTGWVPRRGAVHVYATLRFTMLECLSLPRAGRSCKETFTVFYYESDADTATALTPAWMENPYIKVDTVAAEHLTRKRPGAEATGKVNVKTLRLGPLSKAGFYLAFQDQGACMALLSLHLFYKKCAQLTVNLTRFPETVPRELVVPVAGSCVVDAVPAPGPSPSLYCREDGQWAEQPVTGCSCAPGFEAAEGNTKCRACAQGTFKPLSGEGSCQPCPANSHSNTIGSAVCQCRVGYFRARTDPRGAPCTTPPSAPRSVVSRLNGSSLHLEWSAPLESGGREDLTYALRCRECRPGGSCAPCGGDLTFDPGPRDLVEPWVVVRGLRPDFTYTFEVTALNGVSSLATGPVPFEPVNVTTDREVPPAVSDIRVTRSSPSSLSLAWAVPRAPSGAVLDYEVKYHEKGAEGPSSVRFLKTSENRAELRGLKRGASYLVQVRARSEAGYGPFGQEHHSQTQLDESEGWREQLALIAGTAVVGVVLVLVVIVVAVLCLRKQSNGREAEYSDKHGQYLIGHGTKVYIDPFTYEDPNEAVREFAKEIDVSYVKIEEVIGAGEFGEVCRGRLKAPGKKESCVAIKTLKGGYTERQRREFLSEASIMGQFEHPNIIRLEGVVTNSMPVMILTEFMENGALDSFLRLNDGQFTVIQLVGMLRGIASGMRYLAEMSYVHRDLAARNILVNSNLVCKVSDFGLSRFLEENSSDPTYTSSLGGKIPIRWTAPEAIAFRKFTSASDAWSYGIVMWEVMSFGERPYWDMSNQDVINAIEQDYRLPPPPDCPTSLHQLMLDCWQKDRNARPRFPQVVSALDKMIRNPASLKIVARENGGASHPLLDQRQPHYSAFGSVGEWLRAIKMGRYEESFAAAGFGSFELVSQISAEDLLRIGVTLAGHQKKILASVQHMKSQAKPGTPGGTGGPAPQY", "assay": "Selectivity interaction (Kinase panel (Z-LYTE Assay)) EUB0001632a EPHB4", "conditions": "at 10 µM"}, "[4]": {"molecular_target": "Ribosomal protein S6 kinase alpha-6 (Homo sapiens, UniProt Q9UK32)", "sequence (Q9UK32 whole entry)": "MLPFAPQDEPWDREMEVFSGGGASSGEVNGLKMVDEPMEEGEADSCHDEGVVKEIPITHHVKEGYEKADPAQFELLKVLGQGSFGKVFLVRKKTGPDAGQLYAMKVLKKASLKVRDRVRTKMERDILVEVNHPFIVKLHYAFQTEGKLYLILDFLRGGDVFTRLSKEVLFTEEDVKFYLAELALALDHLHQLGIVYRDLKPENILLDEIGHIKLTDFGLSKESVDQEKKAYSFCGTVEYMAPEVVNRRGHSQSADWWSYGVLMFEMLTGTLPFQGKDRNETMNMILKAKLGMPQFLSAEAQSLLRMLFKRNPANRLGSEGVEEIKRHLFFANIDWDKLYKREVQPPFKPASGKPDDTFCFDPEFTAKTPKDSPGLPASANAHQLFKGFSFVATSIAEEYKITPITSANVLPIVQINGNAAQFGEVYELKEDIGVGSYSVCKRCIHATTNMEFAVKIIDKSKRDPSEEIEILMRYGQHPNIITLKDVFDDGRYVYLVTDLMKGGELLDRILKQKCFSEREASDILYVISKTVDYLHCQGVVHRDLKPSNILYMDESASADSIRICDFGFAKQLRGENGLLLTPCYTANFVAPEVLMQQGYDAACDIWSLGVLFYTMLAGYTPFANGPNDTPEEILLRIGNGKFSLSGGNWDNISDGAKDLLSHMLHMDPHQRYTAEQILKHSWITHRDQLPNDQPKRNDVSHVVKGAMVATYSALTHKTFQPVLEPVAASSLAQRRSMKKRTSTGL", "assay": "Selectivity interaction (KinomeScan (DiscoverX)) EUB0000666a RPS6KA6", "conditions": "at 10 µM"}, "[5]": {"molecular_target": "Activin receptor type-1-like (Homo sapiens) (UniProt P37023)", "sequence (P37023 whole entry)": "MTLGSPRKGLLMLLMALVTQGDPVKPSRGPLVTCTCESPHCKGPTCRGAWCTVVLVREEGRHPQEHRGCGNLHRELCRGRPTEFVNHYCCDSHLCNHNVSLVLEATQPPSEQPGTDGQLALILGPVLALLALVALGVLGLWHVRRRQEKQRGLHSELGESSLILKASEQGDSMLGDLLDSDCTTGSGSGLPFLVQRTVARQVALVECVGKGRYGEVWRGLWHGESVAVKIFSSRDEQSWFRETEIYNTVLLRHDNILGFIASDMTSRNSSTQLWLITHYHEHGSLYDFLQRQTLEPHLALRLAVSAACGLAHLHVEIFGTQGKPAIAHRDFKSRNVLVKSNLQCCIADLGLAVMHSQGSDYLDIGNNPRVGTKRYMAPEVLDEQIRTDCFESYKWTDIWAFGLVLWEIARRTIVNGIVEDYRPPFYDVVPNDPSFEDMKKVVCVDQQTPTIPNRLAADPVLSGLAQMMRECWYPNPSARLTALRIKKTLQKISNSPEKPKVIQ", "conditions": "at 10 µM"}, "[6]": {"molecular_target": "Macrophage colony-stimulating factor 1 receptor (Homo sapiens) (UniProt P07333)", "sequence (P07333 whole entry)": "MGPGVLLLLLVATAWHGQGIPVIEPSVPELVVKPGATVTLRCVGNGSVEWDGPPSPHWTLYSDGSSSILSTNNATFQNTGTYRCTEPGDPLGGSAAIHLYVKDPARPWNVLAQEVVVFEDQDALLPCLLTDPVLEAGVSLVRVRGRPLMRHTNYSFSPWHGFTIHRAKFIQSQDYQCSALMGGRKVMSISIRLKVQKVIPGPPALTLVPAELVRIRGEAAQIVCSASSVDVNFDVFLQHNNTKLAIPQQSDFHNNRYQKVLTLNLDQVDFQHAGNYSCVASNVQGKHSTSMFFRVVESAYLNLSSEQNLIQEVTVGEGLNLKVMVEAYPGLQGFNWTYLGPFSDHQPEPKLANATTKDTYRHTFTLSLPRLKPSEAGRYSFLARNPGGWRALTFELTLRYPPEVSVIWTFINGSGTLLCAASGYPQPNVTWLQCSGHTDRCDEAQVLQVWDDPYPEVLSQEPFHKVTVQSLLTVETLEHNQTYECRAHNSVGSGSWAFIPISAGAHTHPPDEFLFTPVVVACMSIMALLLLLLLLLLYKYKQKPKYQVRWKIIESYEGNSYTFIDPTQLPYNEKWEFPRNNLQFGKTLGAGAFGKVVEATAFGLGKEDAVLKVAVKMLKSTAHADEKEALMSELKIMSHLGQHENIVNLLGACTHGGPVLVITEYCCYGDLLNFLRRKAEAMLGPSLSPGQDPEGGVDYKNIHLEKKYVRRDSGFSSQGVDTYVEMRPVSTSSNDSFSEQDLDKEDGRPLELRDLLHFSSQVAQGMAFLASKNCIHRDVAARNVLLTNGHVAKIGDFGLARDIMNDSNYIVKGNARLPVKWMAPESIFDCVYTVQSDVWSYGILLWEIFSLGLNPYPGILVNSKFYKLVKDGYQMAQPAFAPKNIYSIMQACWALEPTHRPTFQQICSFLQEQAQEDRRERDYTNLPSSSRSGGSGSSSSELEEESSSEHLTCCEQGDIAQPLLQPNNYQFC", "conditions": "at 10 µM"}, "[7]": {"molecular_target": "T2, cGMP-dependent protein kinase 1 (Homo sapiens) (UniProt Q13976)", "T2 sequence (whole entry)": "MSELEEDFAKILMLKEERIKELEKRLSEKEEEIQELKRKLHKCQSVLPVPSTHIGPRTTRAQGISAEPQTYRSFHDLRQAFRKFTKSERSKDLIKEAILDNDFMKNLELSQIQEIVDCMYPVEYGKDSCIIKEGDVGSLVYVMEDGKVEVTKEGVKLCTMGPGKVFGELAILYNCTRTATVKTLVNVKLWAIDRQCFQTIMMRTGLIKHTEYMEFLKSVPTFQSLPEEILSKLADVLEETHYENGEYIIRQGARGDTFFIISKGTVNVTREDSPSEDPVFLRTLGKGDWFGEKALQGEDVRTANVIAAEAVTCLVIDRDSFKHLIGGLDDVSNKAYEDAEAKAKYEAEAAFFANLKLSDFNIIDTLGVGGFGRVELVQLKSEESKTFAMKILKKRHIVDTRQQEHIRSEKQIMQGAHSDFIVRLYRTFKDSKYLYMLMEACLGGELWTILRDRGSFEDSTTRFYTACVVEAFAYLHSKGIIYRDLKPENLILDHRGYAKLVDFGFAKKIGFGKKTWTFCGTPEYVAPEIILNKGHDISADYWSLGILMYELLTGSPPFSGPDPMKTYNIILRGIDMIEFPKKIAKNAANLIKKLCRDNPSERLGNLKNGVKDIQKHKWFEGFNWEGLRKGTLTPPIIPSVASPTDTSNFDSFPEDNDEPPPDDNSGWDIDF", "assay": "Selectivity interaction (KinomeScan (DiscoverX)) EUB0001049a PRKG1", "conditions": "at 1 µM"}, "[8]": {"molecular_target": "Serine/threonine-protein kinase Chk2 (Homo sapiens) (UniProt O96017)", "sequence (O96017 whole entry)": "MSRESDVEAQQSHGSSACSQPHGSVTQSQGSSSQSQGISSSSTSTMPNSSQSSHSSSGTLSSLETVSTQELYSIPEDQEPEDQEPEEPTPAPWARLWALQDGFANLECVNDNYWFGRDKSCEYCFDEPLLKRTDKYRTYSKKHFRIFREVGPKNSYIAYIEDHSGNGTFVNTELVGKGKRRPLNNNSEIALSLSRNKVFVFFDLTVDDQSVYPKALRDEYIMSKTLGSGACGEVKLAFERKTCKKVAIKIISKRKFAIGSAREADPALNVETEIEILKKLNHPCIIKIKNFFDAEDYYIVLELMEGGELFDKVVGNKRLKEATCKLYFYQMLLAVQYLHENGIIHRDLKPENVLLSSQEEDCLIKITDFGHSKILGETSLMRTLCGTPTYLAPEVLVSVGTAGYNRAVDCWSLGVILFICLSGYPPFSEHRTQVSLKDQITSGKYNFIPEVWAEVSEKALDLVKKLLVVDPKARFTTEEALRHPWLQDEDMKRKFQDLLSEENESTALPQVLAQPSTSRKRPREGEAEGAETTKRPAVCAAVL", "assay": "Selectivity interaction (Kinase panel (literature)) EUB0001199aCl CHEK2", "conditions": "at 1 µM"}, "[9]": {"molecular_target": "T3, Dual specificity mitogen-activated protein kinase kinase 6 (Homo sapiens) (UniProt P52564)", "T3 sequence (whole entry)": "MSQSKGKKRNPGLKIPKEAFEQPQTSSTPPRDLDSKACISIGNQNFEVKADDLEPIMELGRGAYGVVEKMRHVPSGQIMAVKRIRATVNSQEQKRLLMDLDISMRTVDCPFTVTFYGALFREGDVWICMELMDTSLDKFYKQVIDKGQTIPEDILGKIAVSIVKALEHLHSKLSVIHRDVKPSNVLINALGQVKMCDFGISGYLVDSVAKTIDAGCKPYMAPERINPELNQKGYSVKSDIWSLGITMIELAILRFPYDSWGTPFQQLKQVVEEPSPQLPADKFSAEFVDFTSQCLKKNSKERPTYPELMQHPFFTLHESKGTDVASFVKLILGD", "assay": "Selectivity interaction (Kinase panel (DSF assay)) EUB0001558a MAP2K6"}, "[10]": {"molecular_target": "Calcium/calmodulin-dependent protein kinase type II subunit alpha (Homo sapiens, UniProt Q9UQM7)", "sequence (Q9UQM7 whole entry)": "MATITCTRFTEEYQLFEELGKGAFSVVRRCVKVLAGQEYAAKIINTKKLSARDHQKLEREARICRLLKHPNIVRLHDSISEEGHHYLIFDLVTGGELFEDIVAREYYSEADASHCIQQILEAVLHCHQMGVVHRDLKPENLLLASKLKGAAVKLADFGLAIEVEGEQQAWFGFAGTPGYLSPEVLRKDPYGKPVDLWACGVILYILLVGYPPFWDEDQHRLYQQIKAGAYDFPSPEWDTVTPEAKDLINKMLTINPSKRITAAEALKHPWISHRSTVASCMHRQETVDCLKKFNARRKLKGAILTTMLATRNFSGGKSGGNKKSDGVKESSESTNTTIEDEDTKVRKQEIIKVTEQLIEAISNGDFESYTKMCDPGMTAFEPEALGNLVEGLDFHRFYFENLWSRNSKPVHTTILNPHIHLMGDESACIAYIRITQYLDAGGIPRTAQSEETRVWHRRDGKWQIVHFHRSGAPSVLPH", "assay": "Selectivity interaction (KinomeScan (DiscoverX)) EUB0000618a CAMK2A", "conditions": "at 10 µM"}}}
{"smiles": "Nc1cnc(N2CCc3cc(S(=O)(=O)Nc4c(F)cc(Cl)cc4F)cc(N4CCCC4=O)c32)nc1", "note": "[TP-020n]", "values": [{"measurement": "% of control", "setting": "[1]", "value": 100, "unit": "%"}]}
{"smiles": "Cn1cc(-n2cnc3c(NCc4nc5cc(Cl)c(Cl)cc5[nH]4)nc(N4CCOCC4)nc32)cn1", "values": [{"measurement": "% of control", "setting": "[2]", "value": -3.31, "unit": "%"}, {"measurement": "% of control", "setting": "[3]", "value": -10.1, "unit": "%"}]}
{"smiles": "O=C(NOC[C@H](O)CO)c1ccc(F)c(F)c1Nc1ccc(I)cc1F", "values": [{"measurement": "% of control", "setting": "[4]", "value": 75, "unit": "%"}]}
{"smiles": "Cc1cc([C@@H](C)Nc2ccccc2C(=O)O)c2nc(N3CCOCC3)cc(=O)n2c1", "note": "[AZD-6482]", "values": [{"measurement": "% of control", "setting": "[5]", "value": 89, "unit": "%"}, {"measurement": "% of control", "setting": "[6]", "value": 94, "unit": "%"}]}
{"smiles": "COc1cc(Nc2nc(C)cc(-c3cnn4nc(OC)ccc34)n2)cc(C(F)(F)F)c1", "values": [{"measurement": "% of control", "setting": "[7]", "value": 92, "unit": "%"}]}
{"smiles": "CN1Cc2nccc(-c3cn(C)nc3-c3ccc(F)cc3)c2C1=O", "values": [{"measurement": "% of inhibition", "setting": "[8]", "value": 0, "unit": "%"}]}
{"smiles": "CC(C)(O)[C@H](F)CN1Cc2cc(NC(=O)c3cnn4cccnc34)c(N3CCOCC3)cc2C1=O", "values": [{"measurement": "dTM", "setting": "[9]", "value": 0.3, "unit": "K"}]}
{"smiles": "O[C@H]1CC[C@H](Nc2ncc3nc(Nc4c(F)cc(F)cc4F)n([C@H]4CCOC4)c3n2)CC1", "values": [{"measurement": "% of control", "setting": "[10]", "value": 95, "unit": "%"}]}
